System: hamster liver nuclei
Test: DNA fragmentation assay (HeLa S-100 incubated with hamster liver nuclei)
Assay type: biochemical
Settings: 1 mM nucleotide, 37° C., 2 hr
Description: FIGS. 1A-1D illustrate dATP-dependent activation of CPP32 and DNA fragmentation in vitro. Aliquots (10 μl) of HeLa cell S-100 (50 μg) were incubated alone (lane 1), in the presence of 1 mM ATP (lane 2), or in the presence of 1 mM dATP (lane 3) at 30° C. for 1 hr in a final volume of 20 μl of buffer A. FIG. 1A, samples were subjected to SDS-PAGE and transferred to a nitrocellulose filter, probed with a monoclonal anti-CPP32 antibody, and the antigen/antibody complex was visualized by the ECL method. The filter was exposed to Kodak X-OMAT AR X-ray film for 1 min. In FIG. 1B, an aliquot of 10 μl of in vitro translated, ^35S-labeled PARP was added to each reaction. After 5 min, the samples were subjected to SDS-PAGE and transferred to a nitrocellulose filter. The filter was exposed to film for 2 hr at room temperature. In FIG. 1C, a 5 μl aliquot of in vitro translated, ^35S-labeled SREBP-2 was added to each reaction. After incubation at 30° C. for 30 min, the samples were subjected to SDS-PAGE, the gel was dried and exposed to film for 2 hr at room temperature. […]
FIGS. 2A-2B illustrate the nucleotide specificity for in vitro activation of CPP32 and DNA fragmentation. […] The DNA was isolated, analyzed by 2% agarose gel electrophoresis and visualized by ethidium bromide staining. […]

**Q.** With `Nc1ncnc2c1ncn2[C@H]1C[C@H](O)[C@@H](COP(=O)(O)OP(=O)(O)OP(=O)(O)O)O1` [dATP, deoxyadenosine-5-triphosphate] as the compound, how does the “DNA fragmentation in hamster liver nuclei” value read?
**A.** induced DNA fragmentation
